Data as given in publication PMC5847048 (Psychopharmacology, 2017).
Like-named read-outs stand apart in the source and are kept apart here.

Columns and labels:
[1] = tested on: aged mice (18–19 months old); assay: Sequential/spontaneous alternation (SA) working memory task in T-maze; format: in vivo, mouse; details: ITI 90 s
Description: Treatments were administered per os daily for nine consecutive days for studies involving the CSD and SA tasks. The 8th and the 9th oral administrations were given 60 min before acquisition and test phases in the CSD task, or before the training and the test sessions in the SA task.
The spontaneous alternation (SA) task was performed in independent groups of mice as regards to the CSD and radial maze tasks. The SA task allows investigation of aged-induced working memory impairments (Vandesquille et al. [2011]). In this task, mice are submitted to a series of successive choices in a T-maze. To alternate from trial to trial, animals have to remember at each choice (except the first one) only the previous trial and to reset the interfering information from trial to trial over a series. This resetting mechanism is a main aspect of working memory (Aggleton et al. [1986]; Béracochéa and Jaffard, [1987]; Kesner [2005]).
Behavioral tests were conducted in a gray Plexiglas T-maze. Stem and arms are 35 cm long, 15 cm wide, and 10 cm high. The starting box (10 cm × 12 cm) and each goal arm are separated from the central alley by a vertical sliding door, with opening and closing monitored by a computer. Photoelectric cells allow recording of both the choice of the goal arm (left or right) and the latency (in seconds) that elapsed between the opening of the starting box and the closing of the goal box. The T-maze is located at the center of a room with various allocentric cues (white or black or striped card boards) located on the wall 1 m above the apparatus.
Animals were not food deprived, and no food reinforcement was used. Animals were first submitted to a habituation phase consisting of two free exploration sessions of 10 min each, over two consecutive days (one session per day) in the apparatus with all doors opened. At the end of the habituation phase, all animals were submitted to a training phase, involving a series of seven successive trials separated by a 30-s intertrial interval (ITI). The training phase was aimed at familiarizing the animals with the opening and closing of the doors.
For the training session, animals were submitted to a sequence of seven successive identical trials. At the beginning of a trial, mice were placed in the starting box and after a confinement period (30 s, predefined ITI), the door to the stem was opened. When the mouse entered one of the goal arms, the door was closed and the chosen arm was recorded. After a 30-s confinement period in the chosen arm, the mouse was gently returned to the starting box for a second trial, identical to the first one. To avoid olfactory cues in the apparatus, visible traces of urine were removed and the general procedure was implemented as in the training phase, except that the ITI was extended to 90 s and animals were submitted to a series of […] successive trials. […] Moreover, an 8th trial was added to the series which was separated from the 7th one by a 5-s ITI. […] The alternation score (in percentage) was used as an index of memory performance. An alternation is defined as a visit in a given arm followed by a visit into the other arm. The successive sequence of visits for the seven first trials determines the level of alternation. A percentage of alternation was calculated: number of alternations performed/number maximal of alternation. This percentage is calculated for each mouse.
For the sequential alternation task, mean and standard errors of the mean (SEM) were calculated for each group of treatment. In addition to % alternation drawn over the seven trials of the series, behavioral performances were also expressed in percentage of alternation drawn from blocks of two consecutive trials (block 1: trials 2 + 3; block 2: trials 4 + 5; block 3: trials 6 + 7). The analyses per trial blocks allowed evaluation of proactive interference over the series (Vandesquille et al. [2011], [2013]). Statistical analyses were performed using the Statview 5.0 software. […]

[2] = Description: The sampling times were 30 min, 1, 2, 4, and 6 h.
Plasma was extracted from the blood sample by centrifugation (+ 4 °C, 1500g, 10 min) and stored at − 80 °C. Then, plasma samples were sent in dry ice to Celerion (Switzerland) for the pharmacokinetic analysis.

[3] = tested on: normal adult mice; set-up: method as in Bretin et al. [2017]; details: acute administration, ref Bretin et al. [2017]; cited from earlier work
[4] = tested on: aged rats; set-up: method as in Calabrese et al. [2017]; details: dorsal hippocampus and prefrontal cortex of aged rats; ref Calabrese et al. [2017]; cited from earlier work
[5] = tested on: rats; set-up: method as in Bretin et al. [2017]; details: acute administration, ref Bretin et al. [2017]; cited from earlier work
[6] = tested on: mice; assay: Primary observation (Irwin) test; details: S 47445 alone, 3 to 100 mg/kg p.o.; mice
Description: Male Rj: C57BL/6J mice (Elevage Janvier, 53940 Le Genest-Saint-Isle, France), 23–27 g body weight range, were stabilized for at least 5 days after delivery in macrolon cages in groups of 10 (housing period) (25 × 19 × 13 cm) and then of 4 (starting the day before the test and during the test) in macrolon cages (25 × 19 × 13 or 32 × 13 × 14 cm) on wood litter with free access to food and water.
Between one and three treated groups were compared with the same control at any one time. […] In order to keep the same conditions, all the mice receiving a single treatment also received another administration with vehicle.
Behavioral modifications, physiological and neurotoxicity symptoms, and rectal temperature were recorded according to a standardized observation grid derived from that of Irwin. The grid contains the following items: death*, convulsions*, tremor*, Straub tail*, altered activity, excitation, jumping*, abnormal gait* (rolling, tip-toe), motor incoordination*, altered muscle tone, loss of grasping, akinesia, catalepsy, loss of traction, writhing*, piloerection*, stereotypies* (sniffing, chewing, head movements), head-twitches*, scratching*, altered respiration*, aggression*, altered fear, altered reactivity to touch, ptosis, exophthalmia, loss of righting reflex, loss of corneal reflex, analgesia, defecation/diarrhea, salivation, lacrimation, and rectal temperature (hypothermia/hyperthermia).

[7] = tested on: aged mice (22–24 months old); assay: Radial maze working memory task; format: in vivo, mouse
Description: In the radial arm maze task, treatments were administered subcutaneously (s.c.) once a day 60 min prior to testing from the 2 days of habituation to the 12 days of memory testing.
The radial maze (Imetronic system, Pessac, France) was fully automated and enabled by video-tracking automatic testing and recording. Briefly, each mouse was separately assigned to six adjacent arms which were grouped into three pairs (A, B, C). These three pairs were presented repeatedly among the successive trials of each testing session. The location of the food reward varied in each pair according to an alternation rule among successive trials. Namely, among the two arms opened in a specific trial, the food was inserted in the arm which was not visited in the previous trial within the same pair. The mouse must therefore remember which of the two arms was visited in a specific trial until next presentation of the same pair, and so on in order to alternate its choice among successive presentations of any pair. At the beginning of each daily session, the mouse was placed in the central platform of the radial maze with all arms closed. One pair of arms only was opened at the beginning of each trial, and the mouse was required to visit one arm. The door of the non-chosen arm was closed as soon as the mouse reached the end of the chosen arm. The mouse was allowed to run back to the central platform of his own accord, and then, the door of the chosen arm was closed. The mouse remained in the central platform until the following trial (intertrial interval 10 s). Since three pairs were concurrently used, three specific arm visits must be kept in memory by the mouse until their utilization by using short-term working memory. After 2 days of free exploration in the maze (habituation), mice were submitted to 12 consecutive testing sessions: one session of 23 trials (3 “acquisition-only trials,” one by pair, and 20 “acquisition and test trials”) per day, i.e., a total of 276 trials (240 test trials).
Each session consisted of alternate presentations of pairs A, B, and C. The first three trials with each pair were acquisition trials (both arms rewarded). Each of the following trials was at the same time an acquisition trial (for the following trial with the same pair) and a test trial (for the arm visit made during the preceding trial with the same pair); the rewarded arm was the one that has not been visited on the preceding trial with the same pair. Memory demand varied across successive trials according to the retention interval RI (i.e., the number of intervening trials with other pairs between two successive presentations of the same pair). The retention interval for one specific arm visit (e.g., within pair A) depends on the number of concurring trials (i.e., with pairs B and C) occurring till next trial with the same pair (A). Indeed, such a variable amount of interposed trials proportionally increases the delay between acquisition and test and may also generate retroactive interference. There are five levels of retention interval: from 0, corresponding to “no interposed pair,” to 4, corresponding to a sequence of four interposed trials between n-1 and n trials.
During habituation, the time needed for visiting all six arms per session day was measured. During memory testing, memory performance was evaluated according to the percentage of correct alternation responses between successive trials with the same pair in three different manners.

[8] = S 47445 0.01 mg/kg p.o. alone, n = 12
[9] = S 47445 0.03 mg/kg p.o. alone, n = 12
[10] = S 47445 0.3 mg/kg p.o. alone, n = 12
[11] = S 47445 1.0 mg/kg p.o. alone, n = 12
[12] = S 47445 0.3 mg/kg p.o. alone, repeated (day 10), blood, middle-aged mice

O=C1c2cc3nnn(CCc4cccc(F)c4)c(=O)c3cc2OCN1C1CC1 [S 47445]
Alternation score, 3rd block of trials (trials 6 + 7) [1, 8]: 45.833 ± 9.650 n = 12% | Alternation score, seven first trials of the series [1, 8]: 59.722 ± 2.477 n = 12% | Alternation score, 3rd block of trials (trials 6 + 7) [1, 9]: 50.000 ± 8.704 n = 12% | Alternation score, seven first trials of the series [1, 9]: 61.11 ± 4.738 n = 12% | Alternation score, 3rd block of trials (trials 6 + 7) ([1]; S 47445 0.1 mg/kg p.o. alone, n = 12): 70.833 ± 7.432 n = 12% | Alternation score, seven first trials of the series ([1]; S 47445 0.1 mg/kg p.o. alone, n = 12, 0.1 mg/kg): alternated significantly above vehicles | Alternation score, seven first trials of the series ([1]; S 47445 0.1 mg/kg p.o. alone, n = 12, listed as S47445, 0.1 mg/kg): 65.278 ± 3.815 n = 12 % | Alternation score, 3rd block of trials (trials 6 + 7) [1, 10]: 50.000 ± 8.704 n = 12% | Alternation score, seven first trials of the series [1, 10]: 61.111 ± 2.369 n = 12% | Alternation score, 3rd block of trials (trials 6 + 7) [1, 11]: 58.333 ± 8.333 n = 12% | Alternation score, seven first trials of the series [1, 11]: 59.722 ± 3.217 n = 12% | Mean AUClast [% CV] [2, 12]: 32.1 [7.83] ng h/mL | Mean Cmax [% CV] [2, 12]: 10.2 [13.7] ng/mL | Median Tmax [range] [2, 12]: 1.5 [1–4] h | T1/2z [% CV] [2, 12]: 2.09 [32.0] h | Blood concentration at the active doses used in the pharmacological experiments ([2]; S 47445, limit of quantification 1 ng/ml): below the limit of quantification | tmax ([2]; S 47445, not changed following combination): 1.5 h | Apparent elimination half-life ([2]; mouse, in vivo): 2.1 to 3.6 h | Mean AUClast [% CV] ([2]; mouse, in vivo): 32.6 [23.0] ng h/mL | Mean Cmax [% CV] ([2]; mouse, in vivo): 8.46 [20.8] ng/mL | Median Tmax [range] ([2]; mouse, in vivo): 1.5 [1–2] h | T1/2z [% CV] ([2]; mouse, in vivo): 3.58 [66.9] h | Time after dosing at which Cmax was reached ([2]; mouse, in vivo): 1 to 4 h | Working-like memory in spontaneous alternation task [3]: dose-related improvement | Neurotrophic effects [4]: displayed neurotrophic effects | Episodic-like memory in object recognition [5]: dose-related improvement | Observable effects in the Irwin test [6]: devoid of any observable effect | Overall memory performance (mean percentage of correct responses over 12 days) ([7]; S 47445 0.3 mg/kg s.c. once a day, aged mice, versus aged vehicle (p ≤ 0.05)): better memory performance as compared to aged vehicle-treated mice | Performance as a function of retention interval (RI 0–4) versus chance level ([7]; S 47445 0.3 mg/kg s.c., aged mice (at least p ≤ 0.01)): remained significantly above chance level regardless the RI level | Performance as a function of proactive interference ([7]; S 47445 0.3 mg/kg s.c., aged mice, data not shown): ameliorated performance whatever the level of proactive interference | Performance as a function of retention interval (RI 0–4) versus chance level ([7]; all other groups (S 47445 0.1 and 1 mg/kg s.c.), aged mice): dropped to chance level above R1 = 1
